According to patent publication US20160044914A1, “BIOCIDE COMPOSITIONS, METHODS OF MANUFACTURE, AND METHODS OF USE” (SEGETIS, INC., priority 2013, published 2016):
“Also recorded” adds a separate entry of the source.

Key:
[1] = Approximate solubility of technical grade active ingredients in the adjuvant solvents (shaker, iterative approach); conditions: for solubility in the three solvents, in words: Solvents I, II and III taken together
Protocol: Solubility studies were conducted using three materials to determine their ability to dissolve various biocide active ingredients: Solvent I-formula 1(a); Solvent II-formula 1(b); and Solvent III-formula 3(a). Active ingredients were chosen from three classes of biocides and primarily reflected difficult to dissolve actives. The following biocides were evaluated.
The approximate solubility of each technical grade active ingredient was determined in each of the solvents.
All examples were conducted on a 100 gram or 50 gram scale. The Dimethoate, 2,4-D, mesotrione and halosulfuron examples were conducted at 50 gram scale. All other examples were conducted on a 100 gram scale.
An amount of solvent was weighed into a 4 ounce jar (or 2 oz). An amount of active ingredient was weighed and added to the solvent in the jar. The jar was capped tightly and placed on a New Brunswick Scientific model C1 platform shaker. The samples were shaken at the 75% setting for 1 hour. During the mixing and after 1 hour each sample was examined and completeness of solubility noted. Using an iterative approach, an approximate solubility for each active ingredient in each of the solvents was determined. Each sample was allowed to sit undisturbed for 1 hour after mixing to determine if any crystallization would occur in those samples which dissolved.

[2] = cited from earlier work
[3] = Solvent I (formula 1(a)), % solids by weight, shaken 1 hour, minimum concentration tested 2.5%
[4] = Solvent II (formula 1(b)), % solids by weight, shaken 1 hour, minimum concentration tested 2.5%
[5] = Solvent III (formula 3(a)), % solids by weight, shaken 1 hour, minimum concentration tested 2.5%

SMILES | approximate solubility range in Solvent I ([1]; 1 h) | approximate solubility range in Solvent II ([1]; 1 h) | approximate solubility range in Solvent III ([1]; 1 h) | approximate solubility range in Solvent I [1, 3] [%] | solubility in the three solvents, in words [1] | approximate solubility range in Solvent II [1, 4] [%] | further results
COc1cc(OC)nc(NC(=O)NS(=O)(=O)c2c(C(=O)O)c(Cl)nn2C)n1 [Halosulfuron] | <2.5% | <2.5% | >2.5%; <5% |  |  |  | 
COc1c(Cl)ccc(Cl)c1C(=O)O [Dicamba] |  |  |  | <10 | greatest solubility; also recorded: did dissolve |  | 
CS(=O)(=O)NC(=O)c1cc(Oc2ccc(C(F)(F)F)cc2Cl)ccc1[N+](=O)[O-] [Fomesafen] | <2.5% | >2.5%; <10% | >5%; <10% |  |  |  | 
COCC(=O)N(c1c(C)cccc1C)C(C)C(=O)OC (stereo not drawn) [Metalaxyl] |  |  |  |  | greatest solubility |  | 
CC1(C)[C@H](C(=O)O[C@H](C#N)c2cccc(Oc3ccccc3)c2)[C@@H]1/C=C(\Cl)C(F)(F)F [Gamma cyhalothrin] |  |  |  | >80 | greatest solubility | >80 | approximate solubility range in Solvent III [1, 5]: >80%
O=C(O)COc1ccc(Cl)cc1Cl [2,4-D] |  |  |  |  | did dissolve |  | 
CS(=O)(=O)c1ccc(C(=O)C2C(=O)CCCC2=O)c([N+](=O)[O-])c1 [Mesotrione] |  |  |  | <2.5 |  | <2.5 | solubility in Solvent III, in words ([1]; Solvent III): soluble; solubility in acetonitrile and acetone ([2]; acetonitrile and acetone): limited solubility
OC(Cn1cncn1)(c1ccc(F)cc1)c1ccccc1F (stereo not drawn) [Flutrifol] | >2.5%; <5% | >2.5%; <5% | >5%; <20% |  |  |  | 
CCOC(=O)CCC(C)=O [Solvent III] |  |  |  |  |  |  | solvating properties compared among the three solvents ([1]; in all but one active ingredient, for those active ingredients which were soluble): best solvating properties
O=C(O)CNCP(=O)(O)O [Glyphosate] |  |  |  | <2.5 | not very soluble | <2.5 | approximate solubility range in Solvent III [1, 5]: <2.5%; solubility in most solvents, including water ([2]; most solvents, including water): not soluble to any great extent
